Values of other authors, collected in patent publication US9657007B2, “Substituted aminopyrimidine compounds and methods of use” (Calitor Sciences, LLC, priority 2013, dated 2017).

Experiments:
[1] = test system: mouse model of rheumatoid arthritis; conditions: in vivo
[2] = test system: model of systemic lupus erythematosis; conditions: in vivo
[3] = test system: murine model of asthma using ovalbumin-induced airway inflammation
PI3Kδ = conditions: potency range in words

Compound | efficacy in a mouse model of rheumatoid arthritis [1] | onset of disease in a model of systemic lupus erythematosis [2] | inflammation and disease in a murine model of asthma [3] | inhibits PI3Kδ (PI3Kδ) | activity against any protein kinases tested (protein kinases)
O=C1NC(=O)/C(=C\c2ccc3nccnc3c2)S1 [AS 605240] | efficacious | delay onset of disease |  |  | 
Cc1ccccc1-n1c(Cn2cnc3c(N)ncnc32)nc2cccc(C)c2c1=O [IC87114] |  |  | significantly ameliorate inflammation and disease | high nanomolar range (triple digit) | no activity
